Reference: ChEMBL document CHEMBL4477239 (Bioorg Med Chem, 2016)

Experiments:
[1] = Intrinsic clearance in rat liver microsomes assessed per mg of protein at 1 uM preincubated for 5 mins followed by NADPH addition measured after 5 to 30 mins by LC-MS/MS analysis; format: ADME, Microsome; details: read-out: CLH
NCI-H1993 = experiment: Cytotoxicity against human NCI-H1993 cells assessed as growth inhibition after 72 hrs by CCK-8 assay; details: NCI-H1993, 72 h
[2] = Intrinsic clearance in human liver microsomes assessed per mg of protein at 1 uM preincubated for 5 mins followed by NADPH addition measured after 5 to 30 mins by LC-MS/MS analysis; format: ADME, Microsome; details: read-out: CLH
Cytochrome P450 2C9 = Cytochrome P450 2C9 (Homo sapiens, UniProt P11712); experiment: Inhibition of CYP2C9 in human liver microsomes at 10 uM using sulfaphenazole as […] preincubated for 5 mins followed by NADPH addition measured after 20 mins by LC-MS/MS analysis; format: ADME
Cytochrome P450 3A4 = Cytochrome P450 3A4 (Homo sapiens, UniProt P08684); experiment: Time-dependent inhibition of CYP3A4 in human liver microsomes at 10 uM using troleandomycin as […] preincubated with compound followed by NADPH addition by LC-MS/MS analysis; format: ADME
Cytochrome P450 2D6 = Cytochrome P450 2D6 (Homo sapiens, UniProt P10635); experiment: Time-dependent inhibition of CYP2D6 in human liver microsomes at 10 uM using paroxetine as […] preincubated with compound followed by NADPH addition by LC-MS/MS analysis; format: ADME
Cytochrome P450 2D6, sequence (P10635 whole entry): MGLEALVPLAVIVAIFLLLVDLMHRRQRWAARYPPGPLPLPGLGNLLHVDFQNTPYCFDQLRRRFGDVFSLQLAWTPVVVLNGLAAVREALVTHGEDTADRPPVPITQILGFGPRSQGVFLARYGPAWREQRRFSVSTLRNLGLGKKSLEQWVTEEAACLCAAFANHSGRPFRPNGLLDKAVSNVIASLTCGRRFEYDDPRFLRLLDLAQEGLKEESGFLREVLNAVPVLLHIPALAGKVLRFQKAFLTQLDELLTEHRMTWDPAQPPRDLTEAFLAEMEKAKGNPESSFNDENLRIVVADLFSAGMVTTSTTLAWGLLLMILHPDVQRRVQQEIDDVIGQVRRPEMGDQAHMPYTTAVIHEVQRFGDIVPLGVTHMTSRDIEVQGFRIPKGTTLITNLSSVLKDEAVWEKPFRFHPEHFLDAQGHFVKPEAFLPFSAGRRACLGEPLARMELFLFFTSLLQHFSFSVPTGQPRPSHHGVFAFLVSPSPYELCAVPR

Cytochrome P450 1A2 = target: T1, Cytochrome P450 1A2 (Homo sapiens, UniProt P05177); experiment: Time-dependent inhibition of CYP1A2 in human liver microsomes at 10 uM using furafylline as […] preincubated with compound followed by NADPH addition by LC-MS/MS analysis; format: ADME
T1 sequence (P05177 whole entry): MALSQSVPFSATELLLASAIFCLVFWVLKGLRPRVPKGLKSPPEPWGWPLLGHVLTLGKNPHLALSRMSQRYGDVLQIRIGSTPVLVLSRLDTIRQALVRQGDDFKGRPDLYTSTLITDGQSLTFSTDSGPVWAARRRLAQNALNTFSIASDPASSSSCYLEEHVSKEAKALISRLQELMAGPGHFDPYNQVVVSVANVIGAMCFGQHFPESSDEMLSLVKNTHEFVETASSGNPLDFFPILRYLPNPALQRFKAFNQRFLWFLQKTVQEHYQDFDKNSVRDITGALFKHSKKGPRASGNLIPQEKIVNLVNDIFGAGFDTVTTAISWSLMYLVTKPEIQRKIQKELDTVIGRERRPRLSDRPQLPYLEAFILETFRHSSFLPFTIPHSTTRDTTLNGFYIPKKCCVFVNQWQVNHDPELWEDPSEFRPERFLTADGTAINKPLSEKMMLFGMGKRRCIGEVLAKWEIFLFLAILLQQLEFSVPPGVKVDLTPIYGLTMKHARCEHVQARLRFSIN

[3] = Apparent permeability from basolateral to apical side in Caco2 cells at 1 to 10 uM incubated for 90 mins by LC-MS/MS analysis; format: ADME, cell-based; details: human, Caco-2
[4] = Efflux ratio of permeability from basolateral to apical side over apical to basolateral side in Caco2 cells at 1 to 10 uM incubated for 90 mins by LC-MS/MS analysis; format: ADME, cell-based; details: human, Caco-2
[5] = target: Tyrosine-protein kinase receptor UFO (Homo sapiens, UniProt P30530); experiment: Inhibition of human AXL
[6] = target: Macrophage-stimulating protein receptor (Homo sapiens, UniProt Q04912); experiment: Inhibition of human RON
Macrophage-stimulating protein receptor, sequence (Q04912 25-304 limits assumed): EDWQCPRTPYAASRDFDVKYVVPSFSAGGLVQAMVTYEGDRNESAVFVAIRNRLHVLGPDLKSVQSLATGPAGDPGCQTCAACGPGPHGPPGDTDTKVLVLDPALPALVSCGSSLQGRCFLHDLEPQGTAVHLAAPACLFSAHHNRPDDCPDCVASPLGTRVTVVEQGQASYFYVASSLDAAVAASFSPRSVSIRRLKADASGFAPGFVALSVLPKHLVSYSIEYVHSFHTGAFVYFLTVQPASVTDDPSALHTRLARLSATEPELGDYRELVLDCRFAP
Macrophage-stimulating protein receptor, sequence (Q04912 310-1400 limits assumed): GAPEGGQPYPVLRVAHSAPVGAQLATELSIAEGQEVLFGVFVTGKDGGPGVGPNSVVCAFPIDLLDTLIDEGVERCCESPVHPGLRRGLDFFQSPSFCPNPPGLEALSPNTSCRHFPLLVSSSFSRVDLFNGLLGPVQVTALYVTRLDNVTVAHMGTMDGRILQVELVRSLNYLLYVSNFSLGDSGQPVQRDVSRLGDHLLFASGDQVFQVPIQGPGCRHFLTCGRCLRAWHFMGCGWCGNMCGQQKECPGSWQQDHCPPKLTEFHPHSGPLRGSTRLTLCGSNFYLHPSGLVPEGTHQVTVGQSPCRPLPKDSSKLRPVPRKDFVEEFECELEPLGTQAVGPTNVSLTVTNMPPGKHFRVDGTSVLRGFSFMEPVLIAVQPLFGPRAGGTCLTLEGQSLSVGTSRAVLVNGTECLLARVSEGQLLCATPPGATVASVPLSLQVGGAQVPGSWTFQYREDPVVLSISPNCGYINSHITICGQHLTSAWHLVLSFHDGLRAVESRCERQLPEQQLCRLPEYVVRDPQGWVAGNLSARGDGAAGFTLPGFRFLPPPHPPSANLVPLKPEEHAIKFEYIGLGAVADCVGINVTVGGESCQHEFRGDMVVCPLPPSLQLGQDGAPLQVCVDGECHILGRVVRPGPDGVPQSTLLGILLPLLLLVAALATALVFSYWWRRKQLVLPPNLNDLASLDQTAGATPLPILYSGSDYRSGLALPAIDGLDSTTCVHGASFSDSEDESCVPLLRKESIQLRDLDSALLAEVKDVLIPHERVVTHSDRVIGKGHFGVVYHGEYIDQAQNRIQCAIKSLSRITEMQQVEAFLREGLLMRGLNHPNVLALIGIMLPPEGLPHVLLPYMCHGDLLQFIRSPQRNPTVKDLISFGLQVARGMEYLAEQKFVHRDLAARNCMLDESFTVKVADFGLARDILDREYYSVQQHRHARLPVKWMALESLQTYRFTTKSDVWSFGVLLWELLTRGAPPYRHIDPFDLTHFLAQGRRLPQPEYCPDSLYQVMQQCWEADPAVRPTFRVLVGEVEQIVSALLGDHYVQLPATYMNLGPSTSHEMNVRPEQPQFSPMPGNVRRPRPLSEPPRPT

[7] = target: ALK tyrosine kinase receptor (Homo sapiens, UniProt Q9UM73); experiment: Inhibition of human ALK
[8] = target: Vascular endothelial growth factor receptor 1 (Homo sapiens, UniProt P17948); experiment: Inhibition of human FLT1
[9] = target: Vascular endothelial growth factor receptor 2 (Homo sapiens, UniProt P35968); experiment: Inhibition of human VEGFR2
[10] = target: Mast/stem cell growth factor receptor Kit (Homo sapiens, UniProt P10721); experiment: Inhibition of human c-Kit
Mast/stem cell growth factor receptor Kit, sequence (P10721 whole entry): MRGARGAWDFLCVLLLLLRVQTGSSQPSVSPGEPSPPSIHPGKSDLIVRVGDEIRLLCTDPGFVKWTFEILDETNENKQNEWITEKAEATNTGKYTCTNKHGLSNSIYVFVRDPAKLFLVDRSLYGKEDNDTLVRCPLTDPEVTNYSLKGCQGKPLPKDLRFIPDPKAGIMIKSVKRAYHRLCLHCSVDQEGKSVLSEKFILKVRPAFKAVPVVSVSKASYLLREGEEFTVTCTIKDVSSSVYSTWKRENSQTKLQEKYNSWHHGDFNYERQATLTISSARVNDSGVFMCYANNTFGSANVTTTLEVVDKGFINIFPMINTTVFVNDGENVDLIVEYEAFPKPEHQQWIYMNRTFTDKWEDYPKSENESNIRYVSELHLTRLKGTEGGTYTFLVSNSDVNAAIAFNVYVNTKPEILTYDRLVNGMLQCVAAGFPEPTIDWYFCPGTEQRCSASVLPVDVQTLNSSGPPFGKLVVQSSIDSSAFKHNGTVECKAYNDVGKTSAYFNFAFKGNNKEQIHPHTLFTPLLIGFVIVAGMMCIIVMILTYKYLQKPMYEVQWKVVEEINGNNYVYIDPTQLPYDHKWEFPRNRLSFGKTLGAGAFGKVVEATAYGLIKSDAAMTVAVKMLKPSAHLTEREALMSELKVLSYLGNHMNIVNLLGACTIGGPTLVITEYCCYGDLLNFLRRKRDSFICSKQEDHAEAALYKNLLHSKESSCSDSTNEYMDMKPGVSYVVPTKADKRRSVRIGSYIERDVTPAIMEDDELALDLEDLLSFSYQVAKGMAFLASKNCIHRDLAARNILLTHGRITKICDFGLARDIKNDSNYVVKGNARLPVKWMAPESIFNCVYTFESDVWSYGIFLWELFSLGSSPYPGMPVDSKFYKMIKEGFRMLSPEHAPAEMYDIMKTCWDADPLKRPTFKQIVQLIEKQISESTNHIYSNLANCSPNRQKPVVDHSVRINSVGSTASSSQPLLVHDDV

[11] = target: Platelet-derived growth factor receptor alpha (Homo sapiens, UniProt P16234); experiment: Inhibition of human PDGFRalpha
Platelet-derived growth factor receptor alpha, sequence (P16234 whole entry): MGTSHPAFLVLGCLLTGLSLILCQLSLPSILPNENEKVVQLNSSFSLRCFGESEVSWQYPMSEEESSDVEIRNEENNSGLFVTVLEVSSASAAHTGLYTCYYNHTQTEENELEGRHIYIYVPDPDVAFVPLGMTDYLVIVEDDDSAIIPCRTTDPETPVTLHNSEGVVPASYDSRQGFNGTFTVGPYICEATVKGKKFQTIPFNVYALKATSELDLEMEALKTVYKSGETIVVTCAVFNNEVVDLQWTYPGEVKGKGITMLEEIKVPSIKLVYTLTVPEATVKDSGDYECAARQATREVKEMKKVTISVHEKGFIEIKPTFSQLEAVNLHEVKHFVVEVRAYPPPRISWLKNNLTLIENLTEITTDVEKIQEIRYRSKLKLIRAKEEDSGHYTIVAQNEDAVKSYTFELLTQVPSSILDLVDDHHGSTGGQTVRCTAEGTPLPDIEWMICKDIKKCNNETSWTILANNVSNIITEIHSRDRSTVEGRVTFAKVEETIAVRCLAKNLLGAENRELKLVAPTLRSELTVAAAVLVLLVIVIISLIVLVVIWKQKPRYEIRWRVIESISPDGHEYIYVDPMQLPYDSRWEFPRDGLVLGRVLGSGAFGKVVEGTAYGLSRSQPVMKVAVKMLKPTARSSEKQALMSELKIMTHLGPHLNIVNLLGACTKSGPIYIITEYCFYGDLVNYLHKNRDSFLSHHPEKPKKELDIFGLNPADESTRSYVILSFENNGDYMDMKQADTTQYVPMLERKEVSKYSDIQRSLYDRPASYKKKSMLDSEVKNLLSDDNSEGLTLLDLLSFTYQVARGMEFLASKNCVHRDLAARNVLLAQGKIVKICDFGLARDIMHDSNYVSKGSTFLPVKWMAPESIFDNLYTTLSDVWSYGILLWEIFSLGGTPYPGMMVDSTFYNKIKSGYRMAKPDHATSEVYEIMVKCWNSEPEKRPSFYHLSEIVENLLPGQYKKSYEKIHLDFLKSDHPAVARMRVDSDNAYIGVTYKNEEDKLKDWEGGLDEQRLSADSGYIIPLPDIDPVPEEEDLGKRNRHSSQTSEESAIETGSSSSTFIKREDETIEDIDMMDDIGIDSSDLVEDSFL

[12] = target: Platelet-derived growth factor receptor beta (Homo sapiens, UniProt P09619); experiment: Inhibition of human PDGFRbeta
[13] = target: Proto-oncogene tyrosine-protein kinase receptor Ret (Homo sapiens, UniProt P07949); experiment: Inhibition of human RET
[14] = target: Epidermal growth factor receptor (Homo sapiens, UniProt P00533); experiment: Inhibition of human EGFR
[15] = target: Epidermal growth factor receptor (Homo sapiens, UniProt P00533, T790M); experiment: Inhibition of human EGFR T790M mutant
[16] = target: Receptor tyrosine-protein kinase erbB-4 (Homo sapiens, UniProt Q15303); experiment: Inhibition of human ERBB4
[17] = target: Proto-oncogene tyrosine-protein kinase Src (Homo sapiens, UniProt P12931); experiment: Inhibition of human c- SRC
[18] = target: Tyrosine-protein kinase ABL1 (Homo sapiens, UniProt P00519); experiment: Inhibition of human ABL
Ephrin type-A receptor 2 = Ephrin type-A receptor 2 (Homo sapiens, UniProt P29317); experiment: Inhibition of human EPHA2
Ephrin type-B receptor 2 = Ephrin type-B receptor 2 (Homo sapiens, UniProt P29323); experiment: Inhibition of human EPHB2
Ephrin type-B receptor 2, sequence (P29323 whole entry): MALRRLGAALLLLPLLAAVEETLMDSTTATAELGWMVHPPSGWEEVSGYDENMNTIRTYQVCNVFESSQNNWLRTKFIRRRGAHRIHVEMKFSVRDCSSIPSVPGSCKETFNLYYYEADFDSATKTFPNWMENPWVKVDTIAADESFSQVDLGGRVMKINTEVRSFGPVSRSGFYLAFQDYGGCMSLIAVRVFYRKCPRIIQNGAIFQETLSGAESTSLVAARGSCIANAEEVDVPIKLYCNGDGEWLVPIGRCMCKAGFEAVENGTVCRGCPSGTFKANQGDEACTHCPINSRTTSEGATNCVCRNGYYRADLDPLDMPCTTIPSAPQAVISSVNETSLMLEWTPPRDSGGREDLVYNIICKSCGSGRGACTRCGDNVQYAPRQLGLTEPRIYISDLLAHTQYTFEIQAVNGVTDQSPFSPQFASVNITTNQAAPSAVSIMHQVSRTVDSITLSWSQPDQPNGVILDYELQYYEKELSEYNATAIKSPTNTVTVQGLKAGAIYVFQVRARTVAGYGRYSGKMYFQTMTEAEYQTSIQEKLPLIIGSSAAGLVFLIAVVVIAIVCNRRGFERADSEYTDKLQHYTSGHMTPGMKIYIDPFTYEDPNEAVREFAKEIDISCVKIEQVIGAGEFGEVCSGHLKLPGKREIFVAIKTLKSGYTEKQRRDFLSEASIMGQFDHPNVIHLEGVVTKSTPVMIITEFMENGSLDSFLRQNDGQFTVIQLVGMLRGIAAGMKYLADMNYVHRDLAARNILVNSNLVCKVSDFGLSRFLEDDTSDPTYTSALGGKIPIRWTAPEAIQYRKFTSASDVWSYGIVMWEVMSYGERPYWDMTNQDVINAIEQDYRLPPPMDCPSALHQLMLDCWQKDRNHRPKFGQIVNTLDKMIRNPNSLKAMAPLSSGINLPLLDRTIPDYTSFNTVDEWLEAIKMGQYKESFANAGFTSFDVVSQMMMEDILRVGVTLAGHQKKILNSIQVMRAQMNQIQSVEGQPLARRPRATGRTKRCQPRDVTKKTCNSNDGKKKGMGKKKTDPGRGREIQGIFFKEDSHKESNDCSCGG

[19] = target: Insulin-like growth factor 1 receptor (Homo sapiens, UniProt P08069); experiment: Inhibition of human IGF1R
[20] = target: Fibroblast growth factor receptor 1 (Homo sapiens, UniProt P11362); experiment: Inhibition of human FGFR1
[21] = target: Hepatocyte growth factor receptor (Homo sapiens, UniProt P08581)
Description: Inhibition of c-Met kinase (unknown origin) assessed as decrease in phosphorylation of TK substrate-biotin peptide preincubated for 5 to 10 mins followed by ATP addition measured after 30 mins by HTRF assay

in vitro = details: human, Caco-2
Description: Apparent permeability from apical to basolateral side in Caco2 cells at 1 to 10 uM incubated for 90 mins by LC-MS/MS analysis

Structure (SMILES): C[C@@H](c1cc2cccnc2cc1F)n1cnc2ncc(-c3cnn(C)c3)nc21
- microsomal CLint at 1 µM [1]: 49 µL/min/mg
- IC50 (NCI-H1993): 0.0247 µM
- microsomal CLint at 1 µM [2]: 8 µL/min/mg
- inhibition (INH) (Cytochrome P450 2C9): Active
- inhibition (INH) (Cytochrome P450 3A4): Not Active
- inhibition (INH) (Cytochrome P450 2D6): Not Active
- inhibition (INH) (Cytochrome P450 1A2): Not Active
- Papp B→A at 1.5 h [3]: 48.6 ×10⁻⁶ cm/s
- efflux ratio at 1.5 h [4]: 1.04
- IC50 [5]: > 30 µM
- IC50 [6]: > 30 µM
- IC50 [7]: > 30 µM
- IC50 [8]: > 30 µM
- IC50 [9]: 20.6 µM
- IC50 [10]: > 30 µM
- IC50 [11]: 27.6 µM
- IC50 [12]: 26.2 µM
- IC50 [13]: > 30 µM
- IC50 [14]: > 30 µM
- IC50 [15]: > 30 µM
- IC50 [16]: > 30 µM
- IC50 [17]: > 30 µM
- IC50 [18]: > 30 µM
- IC50 (Ephrin type-A receptor 2): > 30 µM
- IC50 (Ephrin type-B receptor 2): > 30 µM
- IC50 [19]: > 30 µM
- IC50 [20]: > 30 µM
- IC50 [21]: 0.00145 µM
- Papp A→B at 1.5 h, 10 µM (in vitro): 46.6 ×10⁻⁶ cm/s
